The numbers were not newly measured in patent US20070232597A1, “Compounds, Compositions, and Methods” (priority 2003, published 2007), which cites them from elsewhere.

This data set has as its system A549 cells. As to conditions: data provided by National Cancer Institute, Developmental Therapeutic Program.
Regarding `O=c1[nH]cc(F)c(=O)[nH]1` [5-fluorouracil], the GI50 was 1 µM.

`COc1cccc2c1C(=O)c1c(O)c3c(c(O)c1C2=O)C[C@@](O)(C(=O)CO)C[C@@H]3O[C@H]1C[C@H](N)[C@H](O)[C@H](C)O1` [doxorubicin]: the GI50 is 0.063 µM.

Regarding `NC(=O)NO` [hydroxyurea], the GI50 is 500 µM.

In the case of `CC(=O)O[C@H]1C(=O)[C@@]2(C)[C@H]([C@H](OC(=O)c3ccccc3)[C@]3(O)C[C@H](OC(=O)[C@H](O)[C@@H](NC(=O)c4ccccc4)c4ccccc4)C(C)=C1C3(C)C)[C@]1(OC(C)=O)CO[C@@H]1C[C@@H]2O` [paclitaxel], the GI50 is 0.004 µM.
